Measured values: patent publication US7179792B2, “Combination product of a 1,4-benzothiepine 1,1-dioxide compound with at least one other active ingredient and the use of the product” (Sanofi-Aventis Deulschland GmbH, priority 2001, dated 2007)

Test system: Male Syrian hamsters (Mesocricetus auratus)
Assay: Plasma lipid levels in hamsters fed 0.1% cholesterol, oral treatment for 10 days
Assay type: in vivo
Conditions: feed + 0.1% CH; for Plasma Cholesterol % / Plasma Triglycerides %: Cholesterol ctr. = 100; for Plasma Cholesterol / Plasma LDL / Plasma Triglycerides: plasma day 10
Method: The synergistic activity of the combination product of a compound of formula I with the other active ingredient was tested in an animal experiment. For this purpose, compound V1 from the compound of formula I was tested: Hamsters were used for the biological testing of the combination product of the invention. Male Syrian hamsters (Mesocricetus auratus) from 8 to 10 weeks of age were used for the experiment. The animals received a standard feed (Teklad 8604M) supplemented with 0.1% cholesterol. An additional normal control group received only standard feed. The test substances were administered orally by gavage once a day on 10 consecutive days, and the control group was treated with the vehicle. Feces were collected on days 5 and 6 of the experiment for bile acid analysis. Retroorbital blood was taken from the animals on day 10 of the experiment, and the lipid levels in the plasma were determined. Radioactive tracers were administered orally to the animals on day 9 of the experiment to determine the cholesterol absorption in analocy to the method described by Zilversmith et al. On day 11 of the experiment, the animals were sacrificed, and the animals' livers were removed for cholesterol analysis and preparation of microsomes. The 7α-hydroxylase activity was determined in the liver microsomes ex vivo by a modified method of Hylemon et al. [table] • K00004513 employed as stock solution (1 mg/ml in EtOH) • Substances are dissolved in 2% EtOH in a final concentration of 5%. • The solutions are then suspended with 0.4% potato starch. • Administration takes place 1× in the morning with 10 ml/kg Feed: Teklad 8604M CH: 032201 M Experimental animals: Male Syrian hamsters (Mesocricetus auratus) supplied by Harlan 100–120 g at the start of adaptation Measured Parameters: • Feed consumption • Animal weight (weekly) • Liver weight • Safety parameters (CH; TG; ALAT/ASAT; AP; HDULDL) • Liver cholesterol (HPLC)=1×500 mg in EtOH/KOH • CYP7 activity (liver microsomes as group pool of 0.5 g each—preparation on day of experiment) • Feces collected on day 5–7 for bile acid determination

Row | Compound | Plasma Cholesterol % (0.1 mg/kg/d oral) [%] | Plasma Triglycerides % (0.1 mg/kg/d oral) [%] | Plasma Cholesterol (0.1 mg/kg/d oral) [mmol/L] | Plasma LDL (0.1 mg/kg/d oral) [mmol/L] | Plasma Triglycerides (0.1 mg/kg/d oral) [mmol/L] | Plasma Cholesterol % (0.3 mg/kg/d oral) [%] | Plasma Triglycerides % (0.3 mg/kg/d oral) [%] | Plasma Cholesterol (0.3 mg/kg/d oral) [mmol/L] | Plasma LDL (0.3 mg/kg/d oral) [mmol/L] | Plasma Triglycerides (0.3 mg/kg/d oral) [mmol/L] | Plasma Cholesterol % (1 mg/kg/d oral) [%] | Plasma Triglycerides % (1 mg/kg/d oral) [%] | Plasma Cholesterol (1 mg/kg/d oral) [mmol/L] | Plasma LDL (1 mg/kg/d oral) [mmol/L] | Plasma Triglycerides (1 mg/kg/d oral) [mmol/L]
1 | CCCC[C@]1(CC)CS(=O)(=O)c2ccc(N(C)C)cc2[C@@H](c2cccc(NC(=O)CCCCNC[C@H](O)[C@@H](O)[C@H](O)[C@H](O)CO)c2)[C@H]1O [V1] | 120 | 115 | 4.20 | 1.06 | 1.87 | 114 | 108 | 4.01 | 1.18 | 1.75 | 92 | 124 | 3.23 | 0.92 | 2.02
2 | O=C1[C@H](CC[C@H](O)c2ccc(F)cc2)[C@@H](c2ccc(O)cc2)N1c1ccc(F)cc1 [Ezetimibe, ezetimibe, reference compound] | 98 | 100 | 3.44 | 1.04 | 1.63 | – | – | – | – | – | – | – | – | – | –
